Reference: patent US12391737B2, “Soluble NPY2 receptor agonists” (Boehringer Ingelheim International GmbH, priority 2020, dated 2025)
*1 amine or outer side, *2 acyl side, *3 side chain or, on linkers, in order; H or OH if unused. Where a SMILES comes first, the peptide text is derived from it. Side-chain parts run from the residue outwards. The star is where a group is joined. C18 diacid = O=C(O)CCCCCCCCCCCCCCCCC(=O)*; γGlu = O=C(O)[C@H](CCC(=O)[*:2])N[*:1]; Isovaleryl = CC(C)CC(=O)*; Ahx = NCCCCCC(=O)O

What was measured:
[1] = biological target: T1, Human Neuropeptide Y2 Receptor (Homo sapiens, UniProt P49146); test: Radioligand binding competition assay (RLB); conditions: Table 3, 125I-PYY(1-36) competition; read-out: Ki
T1 construct: purchased CHEMICON HTS066M
T1 sequence (P49146 1-381): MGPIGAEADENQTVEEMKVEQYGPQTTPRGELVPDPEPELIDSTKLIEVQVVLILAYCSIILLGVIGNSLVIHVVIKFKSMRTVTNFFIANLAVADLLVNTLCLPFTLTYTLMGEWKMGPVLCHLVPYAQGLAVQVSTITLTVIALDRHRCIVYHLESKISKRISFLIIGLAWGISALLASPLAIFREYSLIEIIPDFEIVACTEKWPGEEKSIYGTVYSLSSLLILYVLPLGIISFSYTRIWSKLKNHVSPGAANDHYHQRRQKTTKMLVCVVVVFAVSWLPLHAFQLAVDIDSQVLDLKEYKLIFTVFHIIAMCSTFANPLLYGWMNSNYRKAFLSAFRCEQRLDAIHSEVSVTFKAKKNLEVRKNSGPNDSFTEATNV
Protocol: The filtration RLB assay was carried out in 96-well plates in a final volume of 100 μl per well. Freeze-dried test peptides were dissolved in 100% dimethyl sulfoxide (DMSO) to stock solutions of 1 mM and serial dilutions were performed in assay buffer (50 mM HEPES, 5 mM MgCl2, 1 mM CaCl2, pH 7.4) containing 0.2% ovalbumin. […] Next, 80 μL membranes (HTS066M, ChemiSCREEN™ Human Neuropeptide Y2 Receptor Membrane Preparation, CHEMICON) were added to each well to give a final protein concentration of 0.5 μg/well. The plates were sealed and incubated at room temperature for 2 hours in a plate shaker set at 400 rpm. The incubation was stopped by vacuum filtration onto 0.5% polyethylene amine (PE) presoaked GF/C filters using a 96-well FilterMate™ harvester (Perkin Elmer) followed by four washes with 300 μl/well ice-cold wash buffer (50 mM HEPES, 500 mM NaCl, pH7.4). Filter plates were then dried for 60 min at room temperature and the bottom of the plates was sealed with backing tape UniFilter-96. Finally, 50 μl/well scintillation counter cocktail (Microscint20, Packard) was added and the radioactivity was counted in the Packard TopCount NXT scintillation counter. IC50 values (the half maximal inhibitory concentration of the agonist) were calculated by nonlinear regression analysis of sigmoidal dose-response curves.

[2] = Solubility determination; conditions: for Sol6: pH 6; for Sol7: pH 7
Protocol: Peptides (as TFA salts) were weighed out in a filter unit (Mini-UniPrep Syringeless Filter 0.45 μm, Whatman), and 0.1 M sodium diphosphate buffer at pH 6.4 or 7.0 was added to achieve 10 mg/ml final concentration. The peptide was dissolved by shaking the filter unit horizontally at 600 rpm for 2 hours at room temperature. The sample was filtered, to remove any insoluble particles and diluted to 1 mg/ml in 50% acetonitrile. The control was prepared by weighing out the corresponding peptide and dissolving it in 50% acetonitrile to final concentration of 1 mg/ml. Both the control and sample were analysed with reversed phase chromatography. The area under the peak of the sample was compared to the control and the solubility was calculated based on that ratio.
The pH was measured and recorded for each sample.
System: UltiMate 3000 UPLC, ThermoFisher
Mobile phase A: 5% acetonitrile, 95% water, 0.03% trifluoracetic acid.
Mobile phase B: 95% acetonitrile, 5% water, 0.03% trifluoracetic acid.
Gradient: 0-100% mobile phase B (2 mins.)
Column temperature: 50° C.

| Ki [1] | Sol6 [2] | Sol7 [2] | Compound |
| --- | --- | --- | --- |
| 1.44 nM | 8.8 mg/mL | 9.3 mg/mL | CC(C)CC(=O)N[C@@H](C)C(=O)N1CCC[C@H]1C(=O)N[C@@H](C)C(=O)N[C@@H](CCCCNC(=O)CCCCCNC(=O)CC[C@H](NC(=O)CCCCCCCCCCCCCCCCC(=O)O)C(=O)O)C(=O)N1CCC[C@H]1C(=O)N1CCC[C@H]1C(=O)N[C@@H](CCC(=O)O)C(=O)N[C@@H](CC(=O)O)C(=O)N[C@@H](C)C(=O)N[C@@H](CO)C(=O)N1CCC[C@H]1C(=O)N[C@@H](CCC(=O)O)C(=O)N[C@@H](CCC(=O)O)C(=O)N[C@@H](CC(C)C)C(=O)N[C@@H](CCC(N)=O)C(=O)N[C@@H](CCCNC(=N)N)C(=O)N[C@@H](Cc1ccc(O)cc1)C(=O)N[C@@H](Cc1ccc(O)cc1)C(=O)N[C@H](C(=O)N[C@@H](CCC(=O)O)C(=O)N[C@@H](CC(C)C)C(=O)N[C@@H](CCCNC(=N)N)C(=O)N[C@@H](Cc1c[nH]cn1)C(=O)N[C@@H](Cc1ccc(O)cc1)C(=O)N[C@@H](Cc1ccc(O)cc1)C(=O)N[C@@H](CC(N)=O)C(=O)N[C@@H](Cc1c[nH]c2ccccc12)C(=O)N[C@@H](CC(C)C)C(=O)N[C@H](C(=O)N[C@@H](CCCNC(=N)N)C(=O)N[C@@H](CCC(N)=O)C(=O)N[C@@H](CCCNC(=N)N)C(=O)N[C@@H](Cc1ccc(O)cc1)C(N)=O)[C@@H](C)O)C(C)C [Compound 62, N{alpha-4}-(3-methylbutanoyl)-N{epsilon-7}-(6-[(4S)-4-carboxy-4-(17-carboxyheptadecanamido)butanamido]hexanoyl)-[4A,6A,7K,9P,18Q,22V,23E,28Y,30W,31L]-hPYY(4-36)] |
| 2.28 nM | >10.0 mg/mL | 10.0 mg/mL | CC[C@H](C)[C@H](NC(=O)[C@H](CCC(=O)O)NC(=O)[C@H](CCC(=O)O)NC(=O)[C@@H]1CCCN1C(=O)[C@H](C)NC(=O)[C@H](C)NC(=O)[C@H](CC(=O)O)NC(=O)[C@H](CCC(=O)O)NC(=O)[C@H](CCC(=O)O)NC(=O)[C@@H]1CCCN1C(=O)[C@H](CCCCNC(=O)CCCCCNC(=O)CC[C@H](NC(=O)CCCCCCCCCCCCCCCCC(=O)O)C(=O)O)NC(=O)[C@H](CCC(=O)O)NC(=O)[C@@H]1CCCN1C(=O)[C@H](C)NC(=O)CC(C)C)C(=O)N[C@@H](CCC(N)=O)C(=O)N[C@@H](CCCNC(=N)N)C(=O)N[C@@H](Cc1ccc(O)cc1)C(=O)N[C@@H](Cc1ccc(O)cc1)C(=O)N[C@H](C(=O)N[C@@H](CO)C(=O)N[C@@H](CC(C)C)C(=O)N[C@@H](CCCNC(=N)N)C(=O)N[C@@H](Cc1c[nH]cn1)C(=O)N[C@@H](Cc1ccc(O)cc1)C(=O)N[C@@H](Cc1ccc(O)cc1)C(=O)N[C@@H](CC(N)=O)C(=O)N[C@@H](Cc1c[nH]c2ccccc12)C(=O)N[C@@H](CC(C)C)C(=O)N[C@H](C(=O)N[C@@H](CCCNC(=N)N)C(=O)N[C@@H](CCC(N)=O)C(=O)N[C@@H](CCCNC(=N)N)C(=O)N[C@@H](Cc1ccc(O)cc1)C(N)=O)[C@@H](C)O)C(C)C [Compound 170, N{alpha-4}-(3-methylbutanoyl)-N{epsilon-7}-(6-[(4S)-4-carboxy-4-(17-carboxyheptadecanamido)butanamido]hexanoyl)-[4A,7K,9E,13A,17I,18Q,22V,28Y,30W,31L]-hPYY(4-36)] |
| 2.92 nM | 8.9 mg/mL | 7.9 mg/mL | CC(C)CC(=O)N[C@@H](C)C(=O)N1CCC[C@H]1C(=O)N[C@@H](CCC(=O)O)C(=O)N[C@@H](CCCCNC(=O)CCCCCNC(=O)CC[C@H](NC(=O)CCCCCCCCCCCCCCCCC(=O)O)C(=O)O)C(=O)N1CCC[C@H]1C(=O)N[C@@H](CCC(=O)O)C(=O)N[C@@H](CCC(=O)O)C(=O)N[C@@H](CC(=O)O)C(=O)N[C@@H](C)C(=O)N[C@H](C(=O)N1CCC[C@H]1C(=O)N[C@@H](CCC(=O)O)C(=O)N[C@@H](CCC(=O)O)C(=O)N[C@@H](CC(C)C)C(=O)N[C@@H](CCC(N)=O)C(=O)N[C@@H](C)C(=O)N[C@@H](Cc1ccc(O)cc1)C(=O)N[C@@H](Cc1ccc(O)cc1)C(=O)N[C@H](C(=O)N[C@@H](CO)C(=O)N[C@@H](CC(C)C)C(=O)N[C@@H](CCCNC(=N)N)C(=O)N[C@@H](Cc1c[nH]cn1)C(=O)N[C@@H](Cc1ccc(O)cc1)C(=O)N[C@@H](Cc1ccc(O)cc1)C(=O)N[C@@H](CC(N)=O)C(=O)N[C@@H](Cc1c[nH]c2ccccc12)C(=O)N[C@@H](CC(C)C)C(=O)N[C@H](C(=O)N[C@@H](CCCNC(=N)N)C(=O)N[C@@H](CCC(N)=O)C(=O)N[C@@H](CCCNC(=N)N)C(=O)N[C@@H](Cc1ccc(O)cc1)C(N)=O)[C@@H](C)O)C(C)C)[C@@H](C)O [Compound 95, N{alpha-4}-(3-methylbutanoyl)-N{epsilon-7}-(6-[(4S)-4-carboxy-4-(17-carboxyheptadecanamido)butanamido]hexanoyl)-[4A,7K,9E,13T,18Q,19A,22V,28Y,30W,31L]-hPYY(4-36)] |
| 3.07 nM | 9.7 mg/mL | >10.0 mg/mL | CC[C@H](C)[C@H](NC(=O)[C@H](CCC(=O)O)NC(=O)[C@H](CCC(=O)O)NC(=O)[C@@H]1CCCN1C(=O)[C@H](CCC(=O)O)NC(=O)[C@H](C)NC(=O)[C@H](C)NC(=O)[C@H](C)NC(=O)[C@H](CCC(=O)O)NC(=O)[C@@H]1CCCN1C(=O)[C@H](CCCCNC(=O)CCCCCNC(=O)CC[C@H](NC(=O)CCCCCCCCCCCCCCCCC(=O)O)C(=O)O)NC(=O)[C@H](CCC(=O)O)NC(=O)[C@@H]1CCCN1C(=O)[C@H](C)NC(=O)CC(C)C)C(=O)N[C@@H](CCC(N)=O)C(=O)N[C@@H](CCCNC(=N)N)C(=O)N[C@@H](Cc1ccc(O)cc1)C(=O)N[C@@H](Cc1ccc(O)cc1)C(=O)N[C@H](C(=O)N[C@@H](CO)C(=O)N[C@@H](CC(C)C)C(=O)N[C@@H](CCCNC(=N)N)C(=O)N[C@@H](Cc1c[nH]cn1)C(=O)N[C@@H](Cc1ccc(O)cc1)C(=O)N[C@@H](Cc1ccc(O)cc1)C(=O)N[C@@H](CC(N)=O)C(=O)N[C@@H](Cc1c[nH]c2ccccc12)C(=O)N[C@@H](CC(C)C)C(=O)N[C@H](C(=O)N[C@@H](CCCNC(=N)N)C(=O)N[C@@H](CCC(N)=O)C(=O)N[C@@H](CCCNC(=N)N)C(=O)N[C@@H](Cc1ccc(O)cc1)C(N)=O)[C@@H](C)O)C(C)C [Compound 124, N{alpha-4}-(3-methylbutanoyl)-N{epsilon-7}-(6-[(4S)-4-carboxy-4-(17-carboxyheptadecanamido)butanamido]hexanoyl)-[4A,7K,9E,10A,11A,13E,17I,18Q,22V,28Y,30W,31L]-hPYY(4-36)] (Isovaleryl-APEK([Ahx-γGlu-C18 diacid])PEAAAEPEEIQRYYVSLRHYYNWLTRQRY-NH2) |
| 7.6 nM | >10.0 mg/mL | >10.0 mg/mL | CC(C)CC(=O)N[C@@H](C)C(=O)N1CCC[C@H]1C(=O)N[C@@H](CCC(=O)O)C(=O)N[C@@H](CCCCNC(=O)CCCCCNC(=O)CC[C@H](NC(=O)CCCCCCCCCCCCCCCCC(=O)O)C(=O)O)C(=O)N1CCC[C@H]1C(=O)N[C@@H](CCC(=O)O)C(=O)N[C@@H](CCC(=O)O)C(=O)N[C@@H](CC(=O)O)C(=O)N[C@@H](C)C(=O)N[C@H](C(=O)N1CCC[C@H]1C(=O)N[C@@H](CCC(=O)O)C(=O)N[C@@H](CCC(=O)O)C(=O)N[C@@H](CC(C)C)C(=O)N[C@@H](CCC(N)=O)C(=O)N[C@@H](CCCNC(=N)N)C(=O)N[C@@H](Cc1ccc(O)cc1)C(=O)N[C@@H](Cc1ccc(O)cc1)C(=O)N[C@H](C(=O)N[C@@H](CO)C(=O)N[C@@H](CC(C)C)C(=O)N[C@@H](CCCNC(=N)N)C(=O)N[C@@H](Cc1c[nH]cn1)C(=O)N[C@@H](Cc1ccc(O)cc1)C(=O)N[C@@H](Cc1ccc(O)cc1)C(=O)N[C@@H](CC(N)=O)C(=O)N[C@@H](Cc1c[nH]c2ccccc12)C(=O)N[C@@H](CC(C)C)C(=O)N[C@@H](CO)C(=O)N[C@@H](CCCNC(=N)N)C(=O)N[C@@H](CCC(N)=O)C(=O)N[C@@H](CCCNC(=N)N)C(=O)N[C@@H](Cc1ccc(O)cc1)C(N)=O)C(C)C)[C@@H](C)O [Compound 155, N{alpha-4}-(3-methylbutanoyl)-N{epsilon-7}-(6-[(4S)-4-carboxy-4-(17-carboxyheptadecanamido)butanamido]hexanoyl)-[4A,7K,9E,13T,18Q,22V,28Y,30W,31L,32S]-hPYY(4-36)] |
